The source of these data is ChEMBL document CHEMBL4417639, “Nt5c2 inhibitors useful for the treatment of chemotherapy resistant acute lymphoblastic leukemia” (2018).

Active and inactive are the calls of the source. The rule behind the calls is not given here.

The target in assay [1] is Cytosolic purine 5'-nucleotidase (Homo sapiens) (UniProt P49902). Nature of the assay: Inhibition of nucleotidase activity of recombinant NT5C2 (unknown origin) pre-incubated for 10 mins before IMP substrate addition and further incubated for 5 mins in presence of 0.3 mM ATP by malachite green assay relative to control.
Chain of Cytosolic purine 5'-nucleotidase (Homo sapiens) (P49902 whole entry): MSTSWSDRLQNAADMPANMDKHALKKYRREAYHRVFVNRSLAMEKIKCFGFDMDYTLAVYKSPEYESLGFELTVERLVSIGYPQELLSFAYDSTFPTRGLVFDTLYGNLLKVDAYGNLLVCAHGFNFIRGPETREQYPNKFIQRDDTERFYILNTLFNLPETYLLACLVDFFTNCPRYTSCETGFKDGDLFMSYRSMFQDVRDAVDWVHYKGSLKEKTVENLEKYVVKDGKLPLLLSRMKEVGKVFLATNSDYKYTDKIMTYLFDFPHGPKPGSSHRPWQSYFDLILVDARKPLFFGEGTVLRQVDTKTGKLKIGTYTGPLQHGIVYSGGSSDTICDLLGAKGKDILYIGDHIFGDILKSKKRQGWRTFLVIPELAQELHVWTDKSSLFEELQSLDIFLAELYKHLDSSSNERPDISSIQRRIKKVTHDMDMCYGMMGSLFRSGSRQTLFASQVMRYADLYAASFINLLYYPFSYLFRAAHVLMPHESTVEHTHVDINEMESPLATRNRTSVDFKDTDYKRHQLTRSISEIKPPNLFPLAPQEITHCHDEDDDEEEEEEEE
The target is the same in assay [2]. Nature of the assay: Inhibition of basal nucleotidase activity of recombinant NT5C2 (unknown origin) pre-incubated for 10 mins before IMP substrate addition and further incubated for 5 mins in absence of ATP by malachite green assay.

Broadly, the inhibition is the change of the read-out against control, counted positive when it falls. In the case of `Nc1nc(N2CCOCC2)cc(N2CCC(c3cc(CC(=O)O)[nH]n3)CC2)n1`, the inhibition in assay [1] was 85%. The inhibition result in assay [2] is “Active”.

`CCc1c(C)nc(N)nc1NCCc1csc(N)n1`: the inhibition in assay [1] is 49%. Further, the inhibition result in assay [2] is “Active”.

`Cc1nc(N2CCC(c3cc(CC(=O)O)n[nH]3)CC2)cc(-n2cccn2)n1`: in assay [1], the inhibition came out at 49%. In assay [2], the inhibition result is “Active”.

Consider `Nc1nc2c(c(N3CCc4nc(N)sc4C3)n1)CCCC2`, for which the inhibition in assay [1] amounted to 42%. Further, in assay [2], the inhibition entry is “Active”.

As for `Nc1nc2c(c(NCCc3csc(N)n3)n1)CCCC2`, in assay [1], the inhibition amounted to 75%. Also, the inhibition entry in assay [2] is “Active”.

Regarding `CCc1nc(N)nc(N2CCCOC(CN3CCOCC3)C2)c1C` (stereo unspecified), the inhibition in assay [1] worked out at 29%. For the same compound, in assay [2], the inhibition entry was “Active”.

As to `Cc1cc(N2CCC(c3cc(CC(=O)O)n[nH]3)CC2)nc(N2CCCC2)n1`, the inhibition in assay [1] was 62%. The inhibition result in assay [2] was “Active”.

For the compound `CCc1cc(NCCCc2csc(N)n2)nc(N)n1`, in assay [1], the inhibition is 54%. For the same compound, the inhibition result in assay [2] was “Active”.
